Entries after “also recorded” stand apart in the source; their conditions may differ. Bridge positions count the residues as written; N and C are the ends. Ends that are not written are not given here.
Legend:
calcium channel = assay: Whole-cell patch clamp, Cav currents in DRG neurons; assay type: cell-based, rat; conditions: 20 μM ISTX-I, 150 ms step depolarization to +10 mV from −90 mV, Ba2+ as charge carrier
Method: (§1) Rat DRG cells were acutely dissociated from adult Sprague-Dawley rats[30]. Briefly, adult rats of either sex with body weights of approximately 200 g were killed by decapitation. The dorsal root ganglia were isolated quickly from the spinal cord and then transferred into Dulbecco’s modified Eagle’s medium (DMEM) containing trypsin I (0.15 mg/mL) and collagenase II (0.3 mg/mL) for incubation with an oscillation frequency of 200 rpm at 37 °C for 20 min. The trypsin inhibitor II-S (1 mg/mL) was added to terminate the reaction. […]
(§2) DRG neurons with a large diameter (>[…]) and those with a relatively small diameter (<[…]) were chosen by measuring TTX-s and TTX-r currents, respectively. […] Potassium, calcium, and sodium currents were recorded in experimental cells using whole-cell patch-clamp recordings at room temperature, which were performed with an HEK EPC10 patch-clamp amplifier. […] Experimental data were acquired and analyzed using the programs patch master and Sigmaplot 9.0 (Sigma, USA). […]
(§3) Currents were recorded from experimental cells using whole-cell patch clamptechnique at room temperature (22–25 °C). […]
25, MgCl2 12, HEPES 10, and D-glucose 10 (pH 7.2). Calcium channel currents were measured using Ba2+ as the charge carrier. […]

hNav1.1 = assay: Whole-cell patch clamp, hNav1.1 in HEK293T cells; assay type: cell-based, human; conditions: 10 μM ISTX-I; 50 ms step to -10 mV from -80 mV
Method: HEK293T (human embryonic kidney) cells were grown in DMEM containing 10% heat-inactivated FBS at 37 °C in a 5% CO2 incubator. The cDNA genes encoding human (h)Nav1.1, (h)Nav1.2, (h)Nav1.3, (h)Nav1.4, (h)Nav1.5, (h)Nav1.6 and (h)Nav1.7 were transiently transfected into HEK293T cells for electrophysiology using Lipofectamine-2000 (Invitrogen) in serum-reduced medium (Opti-MEM, Invitrogen) following the manufacturer’s instructions. The auxiliary subunits hβ1 and enhanced green florescent protein plasmids were cotransfected into HEK293T cells to increase the current density and efficiently select cells with green florescent protein for whole-cell patch-clamp recordings. After 12 h, the HEK293T cells were used for electrophysiological analysis.
as §2, §3

sodium channels = assay: Selectivity and mode of action on sodium channels, summary statements; assay type: cell-based
Method: as §1, with “reaction. The isolated DRG cells were split into 35 mm culture dishes with DMEM solution containing 10% fetal bovine serum (FBS) and were incubated in a CO2 incubator (5% CO2, 95% air, 37 °C) for 1–4 h before the patch-clamp experiment.” for “reaction.”
as §2, §3

LCSENGDCAADECCVDTVFEGDMVTRSCEKTTGNFTECPGLTPIA (disulfide 2-14, 8-28, 13-38) [ISTX-I]
effect on calcium channels (calcium channel): no obvious effects; also recorded: No effects were detected | effect on hNav1.1 (hNav1.1): no effect | shift of I-V and G-V curves upon inhibition of sodium channels (summary) (sodium channels): without any shifts of the I-V and G-V curves | sodium channel subtype selectivity (in words) (sodium channels): not other sodium channel subtypes; also recorded: specific activity on Nav1.7 subtypes; also recorded: subtype-selective inhibitor of Nav1.7

Reference: paper PMC4942781, “A sodium channel inhibitor ISTX-I with a novel structure provides a new hint at the evolutionary link between two toxin folds” (Scientific Reports, 2016)
